Experimental data as given in patent US12208106B2, “Methods of vitamin D treatment” (priority 2016, dated 2025).

Legend:
[1] = Solubility of calcifediol monohydrate; format: physicochemical
Source text: In one embodiment, calcifediol is synthetically manufactured as calcifediol monohydrate. […] Chemically, calcifediol monohydrate is (3β,5Z,7E)-9,10-secocholesta-5,7,10(19)-triene-3,25-diol monohydrate and its structural formula is: […]

[2] = test system: plasma proteins; experiment: Plasma protein binding of calcifediol; format: in vitro ADME; conditions: human, read-out: bound to plasma proteins
Procedure: The pharmacokinetics of […] were assessed in healthy subjects and subjects with CKD Stage 3 or Stage 4. […] Steady-state levels of serum total 25-hydroxyvitamin D were reached after approximately 3 months. Following multiple dose administration of […], the average steady state concentrations of serum total 25-hydroxyvitamin D were 53 ng/mL and 68 ng/mL for doses of 30 mcg and 60 mcg dose group, respectively. With respect to distribution, calcifediol is extensively bound to plasma proteins (>98%). The mean apparent volume of distribution was 8.8 L in healthy subjects following a single oral dose of […], and 30.1 L in subjects with Stage 3 or Stage 4 chronic kidney disease following repeated dosing. With respect to elimination, the mean elimination half-life of calcifediol was approximately 11 days in healthy individuals following a single dose of […], and approximately 25 days in patients with Stage 3 or Stage 4 chronic kidney disease following repeated once daily dosing. With respect to metabolism, production of calcitriol from calcifediol is catalyzed by the 1α-hydroxylase enzyme, CYP27B1, located in the kidney, parathyroid gland, and other tissues. […] Calcitriol suppresses CYP27B1 and upregulates CYP24A1. Excretion of calcifediol occurs primarily through the biliary fecal route. […]

Row | SMILES | solubility in alcohol and fatty oils [1] | solubility in water [1] | fraction unbound [2]
1 | C=C1CC[C@H](O)C/C1=C/C=C1\CCC[C@]2(C)[C@@H]([C@H](C)CCCC(C)(C)O)CC[C@@H]12 [Calcifediol monohydrate, (3β,5Z,7E)-9,10-secocholesta-5,7,10(19)-triene-3,25-diol monohydrate] | soluble | practically insoluble | 
2 | C=C1CC[C@H](O)C/C1=C/C=C1\CCC[C@]2(C)[C@@H]([C@H](C)CCCC(C)(C)O)CC[C@@H]12 [calcifediol, 25-hydroxyvitamin D3] |  |  | < 0.02
